Measurements published in patent publication US20090117199A1, “Method of treatment of cancer” (priority 1998, published 2009).
Entries after “also recorded” stand apart in the source; their conditions may differ.

What was measured:
[1] = Kp of RB with and without phosphate buffer; format: physicochemical
Description: This may be compared to 66.7 in the absence of phosphate buffer, in which case the pH would have been between about 6 to about 6.5.

[2] = system: PC-3 human prostate tumors; experiment: Tumor response to IL 10% RB in saline, report 051017.02B; format: in vivo, Nu/nu Nude Mice; settings: 10% RB 45 μL/tumor Qd × 1; 24 hours post injection and over 29 days of observation
[3] = Partitioning coefficient of RB, 1-octanol/0.9% saline, effect of pH
Experimental: The partition coefficient of RB was assessed over a range of pH values. The experiments were conducted by titrating RB solutions, measuring pH, then placing aliquots of the solutions into vials containing both organic (1-octanol) and aqueous (0.9% saline) phases. After mixing, the agents were allowed to partition for approximately 1 day. Based on absorption measurements (at the same wavelengths used in Experiment 1), the percentage of agent in each phase, the Kp and LogD (log of Kp) was reported.
Experiment 1 was conducted using a stock solution of 0.42 mg/mL RB, whereas Experiment 3 was conducted using a concentration of 0.08 mg/mL.

[4] = cited from earlier work
[5] = Biodistribution (pharmacokinetic and toxicokinetic) after single IL injection in A375 tumor; format: in vivo, nu/nu mice; settings: single IL injection of 1% or 6% RB
Experimental: Growth control and sham treatment groups received no injection. All dosing was performed on Study Day 1.
Pharmacokinetic and toxicokinetic data from RB-treated tumors illustrates that a single IL injection of RB leads to localized retention of drug tumor tissue. This is illustrated in FIGS. 4 and 5, which show concentration of RB in tumor tissue, peritumor tissue and blood for time points ranging from 0.5 hr to 360 hr (15 days) post injection.

cancer cells = settings: essentially excluded from normal cells; cited from earlier work
[6] = system: melanoma lesions (stage III or IV metastatic melanoma); experiment: Human trial, single IL injection of 10% RB solution in unbuffered saline
MCF-7 [ER+] tumors = experiment: Tumor response to IL 10% RB in saline, report 020110.01B; format: in vivo, BALB/c Nude Mice; settings: 10% RB IL 25-50 μL/tumor Qd × 1; within 21 days; 4/group
Murine Hepa 1-6 tumors = experiment: Tumor response to IL 10% RB in saline, report 051016.02B; format: in vivo, BALB/c Nude Mice; settings: 10% RB 45 μL/tumor Qd × 1
[7] = system: H69Ar human resistant SCLC tumors; experiment: Tumor response to IL 10% RB in saline, report 051017.01B; format: in vivo, Nu/nu Nude Mice; settings: 10% RB 45 μL/tumor Qd × 1; 24 hours post injection and over 7 days of observation
[8] = 25 evaluable target lesions at final follow up
[9] = analysed per patient, 11 patients
[10] = larger lesions receiving 0.2 mL or greater doses of RB

## O=C([O-])c1c(Cl)c(Cl)c(Cl)c(Cl)c1-c1c2cc(I)c(=O)c(I)c-2oc2c(I)c([O-])c(I)cc12.[Na+].[Na+] [RB, 4,5,6,7-Tetrachloro-2′,4′,5′,7′-tetraiodofluorescein]
[1]; phosphate buffered saline, pH 7.4
  Kp: 11.5
[1]; solution without phosphate buffer (unbuffered), absence of phosphate buffer, pH between about 6 to about 6.5
  Kp: 66.7
[2]
  tumors fully ablated: IL RB fully ablated 8/8 tumors 24
[3]
  solubility: 195 µg/mL
[3]; below a pH of about 4.4
  partitioning coefficient versus pH: rapidly increases
[3]; below a pH of about 4.4 (lactone form)
  solubility of RB in the aqueous phase: almost complete insolubility
[3]; pH range about 4 to about 10, 1-octanol/0.9% saline
  partitioning coefficient versus pH: consistent
[4]; bile
  excretion: rapidly excreted from the bile in unmetabolized form
[4]; blood
  removal from the blood: almost exclusively removed from the blood by the liver
[5]; post-injection
  persistence of markedly elevated RB levels in tumor samples: at least 8 days
[5]; 0.5 hr to 360 hr post injection
  mean levels of RB in blood: ≤ 3 µg/g
Cancer cells
  uptake into cancer cells versus normal cells: preferential uptake into cancer cells
[6]; [8]
  objective response rate (ORR), target lesions: 48%
  target lesions with complete response (CR), RECIST: 36%
  target lesions with partial response (PR): 12%
  target lesions with progressive disease: 24%
  target lesions with stable disease: 28%
[6]; 26 evaluable nontarget lesions
  CR, non-target lesions individually: 15%
  ORR, non-target lesions individually: 27%
  PD, non-target lesions individually: 52%
  PR, non-target lesions individually: 12%
[6]; [9]
  CR, overall response per patient: 27%
  ORR, overall response per patient: 55%
  PR, overall response per patient: 27%
  progressive disease (PD), overall response per patient: 18%
  stable disease (SD), overall response per patient: 27%
[6]; [10]
  CR: 62%
  PR: 8%
  successful chemoablation (CR + PR): ~70%
[6]; patients with a negative lesion response
  ORR of nontarget lesions: 0%
[6]; patients with a positive objective response of target lesions
  ORR of nontarget lesions: 44%
[6]; per patient basis
  CR, non-target lesions per patient: 9%
  ORR, non-target lesions per patient: 27%
  PD, non-target lesions per patient: 27%
  PR, non-target lesions per patient: 18%
[6]; per patient, some had subsequent other treatment
  Subsequent status: Alive at 34; also recorded: Dead at 12; also recorded: Dead at 9; also recorded: Alive at 31; also recorded: Alive at 27; also recorded: Dead at 8; also recorded: Alive at 28; also recorded: Alive at 29; also recorded: Alive at 30
[6]; single IL treatment
  adverse effects: generally mild and transient
MCF-7 [ER+] tumors
  tumors completely ablated: [ER+] (4/4), MCF-7 [ER−] (4/4),
Murine Hepa 1-6 tumors; 3 days post injection, 10/group
  tumors fully ablated: IL RB fully ablated 8/10 tumors 3
Murine Hepa 1-6 tumors; large tumors
  partial responses (number of tumors): responses were seen in 2 large
[7]
  tumors fully ablated: IL RB fully ablated 5/5 tumors 24
